Experimental data taken from patent US7893252B2, “Selectively depolymerized galactomannan polysaccharide” (priority 2003, dated 2011).

Legend:
[1] = test system: advanced colorectal cancer; settings: cited from earlier work
rats [2] = test: 28-day subchronic rat study (Example 7); assay type: in vivo; settings: 48 mg/kg 5-FU, daily IV for four consecutive days
Method: In the 28-day subchronic rat study performed with research grade unfiltered galactomannan, single daily IV doses of 10 mL/kg saline, 48 mg/kg (288 mg/m2) 5-FU, 48 mg/kg (288 mg/m2) galactomannan or 24/13 mg/kg (144/78 mg/m2), 36/19 mg/kg (216/114 mg/m2) or 48/25 mg/kg (288/150 mg/m2) of the 5-FU/galactomannan combination were given at a rate of 1 mL/min for four consecutive days. The four doses of 5-FU produced mortality (7/8 with 48 mg/kg 5-FU; 1/8, 2/8 and 7/8 with 24/13, 36/19 and 48/25 mg/kg 5-FU/galactomannan, respectively).
Lesions in unscheduled-death animals were primarily due to the expected action of 5-FU on the hematopoietic and lymphoid systems, with secondary bacterial invasion and disseminated hemorrhage due to effects on coagulation. At the study day 5 necropsy, lesions included pronounced hypocellularity of the bone marrow, lymphoid atrophy of the thymus and atrophy of villi in the various segments of the small intestine (all considered due to the expected action of 5-FU). With the exception of the mild granulomatous foci in the lungs, treatment-related histopathological lesions were resolved in animals sacrificed at study day 29 (only one female survived in Group 2 and Group 6).

mice = test: Acute toxicology, single IV dose in mice; assay type: in vivo; settings: single IV dose 409 mg/kg (1227 mg/m2) 5-FU
Method: Acute toxicology studies of the galactomannan of the present invention were performed in mice, rats and dogs and subchronic toxicology studies were performed in rats and dogs. The following is a summary of the findings of these studies: […]

dogs = test: Acute toxicology, single IV injection in dogs; assay type: in vivo; settings: 5-FU 28.5 mg/kg, galactomannan 15 mg/kg, combination 28.5/15 mg/kg
Method: (§1) Acute toxicology studies of the galactomannan of the present invention were performed in mice, rats and dogs and subchronic toxicology studies were performed in rats and dogs. The following is a summary of the findings of these studies:
The surviving dogs remained clinically normal and had no treatment-related changes in body weight, feed consumption, ECG tracings, clinical pathology or gross tissue changes during the 21-day study period.

[3] = test system: COLO 205 human colon tumor xenografts; test: Efficacy and compatibility with leucovorin in COLO 205 human colon tumor xenografts, q4d×4 (Example 4); settings: GM 120 mg/kg/dose
Method: The principal differences with the study described in Example 3 were that (a) the galactomannan was from another source, of a different size (molecular weight) and with a different Man/Gal ratio, (b) there were four consecutive injections, not three, (c) there were four doses of the galactomannan tested, not one, (d) 5-FU was administered (i.v.) in 48 mg/kg/dose, not 75 mg/kg/dose, as in the first study, and (e) galactomannan (i.v. injection) was compared with leucovorin (oral gavage, administered two hours after 5-FU) in terms of efficacy and toxicity. […] 5-FU alone was administered i.v. on the same q4d×4 treatment schedule at dosages of 48 mg/kg/dose. 5-FU was formulated in saline fresh on each day of treatment at a concentration of 4.8 mg/mL, at pH 9.2. […] Leucovorin powder (clinical formulation, Leucovorin calcium for injection) was reconstituted with water for injection to yield a concentration of 10 mg/mL. On each day of treatment the stock solution was diluted with water for injection to yield a concentration of 2.5 mg/mL.
Two more combination-treatment groups were also included in the study. One group of mice was treated with 5-FU (48 mg/kg/dose, i.v., q4d×4), followed by oral gavage (p.o.) with leucovorin, administered two hours after 5-FU at a dosage of 25 mg/kg/dose. Another two groups of mice were treated with 5-FU in a combination with the galactomannan (48 mg/kg/dose and 120 mg/kg/dose, respectively, i.v., q4d×4), followed by p.o. leucovorin treatment, administered at a dosage of 25 mg/kg/dose two hours after 5-FU plus the galactomannan.
There were a total of nine groups of 10 animals each, s.c.-implanted with COLO 205 human colon tumor xenografts.

rats [4] = test: Acute toxicology, single IV dose in rats; assay type: in vivo; settings: 5-FU 140 mg/kg, galactomannan 72 mg/kg, combination 140/72 mg/kg, n=5/sex/group
Method: as §1
In rats (n=5/sex/group), single IV doses of 140 mg/kg (840 mg/m2) 5-FU, 72 mg/kg (432 mg/m2) galactomannan or 140/72 mg/kg of the combination produced no deaths in any of the groups.
Toxic changes in body weight, feed consumption, and hematology were less severe in the rats injected with the combination, versus those injected with 5-FU alone.

[5] = test system: human colon tumor COLO 205; test: Efficacy study in COLO 205 human colon tumor xenografts, q4d×3 (Example 3); settings: 5-FU 75 mg/kg/dose
Method: The both studies were conducted as follows.
5-FU alone was administered i.v. on the same q4d×3 treatment schedule at doses of 75 mg/kg/dose (225 mg/m2/dose). 5-FU was formulated in saline fresh on each day of treatment at a concentration of 3.75 mg/mL, at pH 9.2. […] Both individual compounds and their mixture were administered according to exact body weight with injection volume being 0.2 mL/10 g body weight.
There were a total of four groups of 10 animals each, s.c.-implanted with COLO 205 human colon tumor xenografts.

beagle dogs = test: 28-day canine study (Example 9); assay type: in vivo; settings: 6 mg/kg (120 mg/m2) 5-FU, daily IV for four consecutive days
Method: In a 28-day canine study, single daily IV doses of saline, 6 mg/kg (120 mg/m2) 5-FU and ([…] (240 mg/m2) galactomannan or 4/2 mg/kg (80/40 mg/m2), 6/3.2 mg/kg (120/64 mg/m2) or 6/6 mg/kg (120/120 mg/m2) 5-FU/galactomannan were injected for four consecutive days to six groups of beagle dogs Mortality occurred in 13 of 48 dogs (five moribund sacrifices and eight found dead) between Study Days 2 and 5 (4/4 males on 5-FU; 3/4 males in the 4/2 mg/kg 5-FU/galactomannan group; 2/4 males and 1/4 females in the 6/3.2 and 6/6 mg/kg 5-FU/galactomannan groups, respectively).
Adverse effects in 5-FU groups included ataxia, prostration, vocalization, convulsions, tremors, hypersensitivity to touch, aggressive behavior (resulting in only three doses being given to the 6/3.2 5-FU/galactomanna group), emesis, salivation, soft stools and decreased red cell parameters and platelet counts. […] At the day 5 necropsy, treatment-related histological changes were largely limited to the 5-FU females. At day 29 necropsy, there were no remarkable changes in the survivors.

[6] = q4d×4, 5-FU 48 mg/kg/dose i.v., leucovorin oral 25 mg/kg/dose

Structure (SMILES)	single agent response rate ([1]; previously treated colorectal cancer patients) [%]	mortality (rats [2])	patients with hand-foot syndrome ([1]; continuous infusion regimens)	death (mice)	time of death (mice) [days]	death (dogs)	median to quadrupling of tumor volume ([3]; i.v. q4d×4, 5-FU 48 mg/kg/dose) [days]	median tumor volume after 13 days ([3]; i.v. q4d×4, 5-FU 48 mg/kg/dose) [mm3]	median days to quadrupling of tumor weight [3, 6] [days]	tumor weight at Day 13 from treatment initiation, mean [3, 6] [mg]	tumor weight at Day 13 from treatment initiation, median [3, 6] [mg]	deaths (rats [4])	mean survival time ([5]; i.v. q4d×3, GM 120 mg/kg/dose) [days]	median to quadrupling of tumor volume ([5]; i.v. q4d×3, GM 120 mg/kg/dose) [days]	median tumor volume after 56 days of the study ([5]; i.v. q4d×3, GM 120 mg/kg/dose) [mm3]	tumor regression after 56 days of the study ([5]; i.v. q4d×3, GM 120 mg/kg/dose)	treatment-related deaths ([5]; i.v. q4d×3, GM 120 mg/kg/dose, 10 mice per group, within two weeks)	time required to quadruple tumor weight ([5]; intravenous, galactomannan 120 mg/kg/day (360 mg/m2)) [days]	mortality between Study Days 2 and 5 (beagle dogs)
O=C1[O][Pt]2([NH][C@@H]3CCCC[C@H]3[NH]2)[O]C1=O [Oxaliplatin]	10	–	–	–	–	–	–	–	–	–	–	–	–	–	–	–	–	–	–
O=c1[nH]cc(F)c(=O)[nH]1 [5-FU, 5-fluorouracil, reference compound]	–	7/8	approximately 20%	3/5	13 to 16	2/2	8.7	800	8.7	734	800	no deaths	23.7	23.7	2254	no tumor regression	three of ten	23.5	4/4
